Laboratory results: patent US10653672B2, “Myogenesis promotor, muscle atrophy inhibitor, medical composition and TAZ activator” (National University Corporation Tokyo Medical and Dental …, priority 2014, dated 2020)
Several values for one entry are separate records, joined by “and”; a condition that tells them apart may be missing. Equal values may be shown once.

Columns and labels:
A549 cells = assay: Immunoblotting of EMT markers in A549 cells; type: cell-based, human
Description: (1) A431 cells, (epidermoid carcinoma), A549 cells (adenocarcinomic human alveolar basal epithelial cell) and HCT116 cells (human colon cancer) were treated with IBS008738 or DMSO, respectively, and evaluated by immunoblotting.
HEK293, A431, A549, HCT116, MCF7 and SW480 cells were cultured in Dulbecco's Modified Eagle Medium (DMEM) containing 10% fetal bovine serum (FBS), 10 mM HEPES-NaOH at pH 7.4, 100 U/ml penicillin and 100 mg/I streptomycin under 5% CO2 at 37° C.

C2C12 cells = assay: Antagonistic action on myostatin in C2C12 cells; type: cell-based, mouse; settings: TAZ knocked down (si TAZ); with myostatin; differentiation condition 72 hours
Source text: Myostatin is a protein and a member of a transforming growth factor […] superfamily, and inhibits muscle growth and differentiation. Myostatin binds activin type IIB receptor and triggers SMAD2/3-dependent signaling. Since TAZ interacts with SMAD2/3, effects of IBS008738 on the signaling of myostatin was examined (FIGS. 8A to 8C). The line in the figures is 100 μm. The line and the error bar indicate the average value and the standard error, *p<0.05, […], ***p<0.001, ns refers to not significant.
(1) C2C12 cells in which TAZ was knocked down (si TAZ) and C2C12 cells in which TAZ was not knocked down (si Cont) were grown to confluence, respectively, A stock solution of 100 μg/mL myostatin in 4 mM […] with 0.1% (w/v) BSA and a stock solution of 10 mM IBS008738 in DMSO were prepared. The cells were cultured at differentiation condition for 72 hours in a 1 mL medium with 1 μL DMSO, a 1 mL medium with 1 μL myostatin stock solution, and a 1 mL medium with 1 μL IBS008738 stock solution. As a result, muscle formation of the C2C12 cells was inhibited in the case with only myostatin, but muscle formation of the C2C12 cells was recovered in the case with myostatin and IBS008738.
(2) The fusion index of C2C12 cells in which TAZ was knocked down (si TAZ) and C2C12 cells in which TAZ was not knocked down (si Cont), after being cultured under differentiation condition for 72 hours, was analyzed.
Expression of MHC of C2C12 cells in which TAZ was knocked down (si TAZ) and C2C12 cells in which TAZ was not knocked down (si Cont), after being cultured under differentiation condition for 72 hours, was analyzed by immunoblotting. As a result, expression of MHC decreased in the case with only myostatin, whereas it recovered in the case with myostatin and IBS008738 (see FIG. 8C).

M-cadherin = assay: Quantitative real-time PCR, M-cadherin; type: cell-based, mouse; settings: C2C12 cells, 10 μM; for Normarized mRNA abundance, M-cadherin: listed as IBS008738
Description: (§1) (1) Quantitative real-time PCR was performed with C2C12 cells immediately before the induction of muscle formation (0 h), and after culturing under differentiation condition in a culture medium added with IBS008738 or DMSO at a concentration of 10 μM for 24 hours (24 h) and 72 hours (72 h), respectively. […] The line and error bar indicate the average value and the standard error, **p<0.05, and ns refers to not significant.
(§2) Evaluation was also performed under the same condition on M-cadherin, calpain 1 and caveolin 3, which are myofusion markers. As a result, there was no increase in the degree of gene transcription in the case with IBS008738.
(§3) The quantitative real-time PCR was performed with SYBER Green (Roche) and ABI7500 Realtime PCR system (Applied Biosystems).

[1] = tested on: binding of Pax3 to Myf5 promoter; assay: Chromatin immunoprecipitation, Pax3 on Myf5 promoter; type: cell-based, mouse; settings: C2C12 cells; 10 μM; differentiation condition 24 hours; protein G sepharose without antibody; listed as IBS008738
Description: (§4) (1) Chromatin immunoprecipitation of MyoD, TEAD and Pax3 was performed on C2C12 cells that were cultured under differentiation condition for 24 hours in a culture medium added with IBS008738 or DMSO at a concentration of 10 μM. Myogenin, connective tissue growth factor (CTGF) and MyfS were detected by PCR, respectively. The immunoprecipitation with protein G sepharose was used as a control (Mock ChIP). […] The line and the error bar in the figure indicate the average value and the standard error, *p<0.05, ***p<0.001, ns refers to not significant.
(§5) The Chromatin immunoprecipitation was performed according to the following process. C2C12 cells were cultured to confluence, and then treated with IBS008738 or DMSO at a concentration of 10 μM in a differentiation medium for 24 hours. The cells were crosslinked in 1.42% (v/v) formaldehyde for 15 minutes, and the reaction was quenched by treating with 125 mM glycine for 5 minutes. […] Shearing was analyzed by agarose gel electrophoresis. […] The immunoprecipitated DNA fragments were isolated using Chelex-100 resin and diluted by 1:2.5 for quantitative PCR analysis. Input normalized relative abundance was determined.

TAZ = assay: Quantitative real-time PCR, TAZ; type: cell-based, mouse; settings: C2C12 cells, 10 μM; for Normarized mRNA abundance, TAZ: listed as IBS008738
Description: as §1, §3

[2] = tested on: binding of MyoD to myogenin promoter; assay: Chromatin immunoprecipitation, MyoD on myogenin promoter; type: cell-based, mouse; settings: C2C12 cells; 10 μM; differentiation condition 24 hours; protein G sepharose without antibody; listed as IBS008738
Description: as §4, §5

calpain 1 = assay: Quantitative real-time PCR, calpain 1; type: cell-based, mouse; settings: C2C12 cells, 10 μM; for Normarized mRNA abundance, Calpain1: listed as IBS008738
Description: as §1, §2, §3

Cc1ccc(-n2cnc(/N=C/N3CCOCC3)c2C(=O)c2ccccc2)cc1 [exemplary compound 1]
EMT markers (fibronectin, E-cadherin, N-cadherin and vimentin) compared with DMSO (A549 cells): no significant difference | muscle formation of the C2C12 cells (C2C12 cells): did not recover | degree of gene transcription of M-cadherin (M-cadherin; 24 h and 72 h): no increase | Normarized mRNA abundance, M-cadherin (M-cadherin; differentiation condition 24 h): 1.66 and 1.61 and 1.64 | Normarized mRNA abundance, M-cadherin (M-cadherin; differentiation condition 72 h): 0.82 and 0.87 and 0.80 | Input %, Myf5-p, Mock ChIP [1]: 0.14% and 0.13% and 0.16% | expression of TAZ (gene transcription) compared with DMSO (TAZ; 24 h and 72 h): did not change | Normarized mRNA abundance, TAZ (TAZ; differentiation condition 24 h): 0.88 and 0.94 | Normarized mRNA abundance, TAZ (TAZ; differentiation condition 72 h): 1.44 and 1.36 and 1.41 | Input %, myogenin-p, Mock ChIP [2]: 0.05% and 0.08% | degree of gene transcription of calpain 1 (calpain 1; 24 h and 72 h): no increase | Normarized mRNA abundance, Calpain1 (calpain 1; differentiation condition 24 h): 0.84 and 0.81 and 0.98 | Normarized mRNA abundance, Calpain1 (calpain 1; differentiation condition 72 h): 1.15 and 1.18 and 1.22
